Columns and labels:
[1] = biological target: T1, beta-catenin-B-cell lymphoma 9 protein complex (Homo sapiens, UniProt P35222); assay: Inhibition of full length beta-catenin (1 to 781 residues) (unknown origin) expressed in Escherichia coli BL21 (DE3)/N-terminal biotinylated human BCL9 HD2 (350 to 375 residues) protein-protein interaction incubated for 1 hr by Alphascreen assay
T1 sequence (P35222 whole entry): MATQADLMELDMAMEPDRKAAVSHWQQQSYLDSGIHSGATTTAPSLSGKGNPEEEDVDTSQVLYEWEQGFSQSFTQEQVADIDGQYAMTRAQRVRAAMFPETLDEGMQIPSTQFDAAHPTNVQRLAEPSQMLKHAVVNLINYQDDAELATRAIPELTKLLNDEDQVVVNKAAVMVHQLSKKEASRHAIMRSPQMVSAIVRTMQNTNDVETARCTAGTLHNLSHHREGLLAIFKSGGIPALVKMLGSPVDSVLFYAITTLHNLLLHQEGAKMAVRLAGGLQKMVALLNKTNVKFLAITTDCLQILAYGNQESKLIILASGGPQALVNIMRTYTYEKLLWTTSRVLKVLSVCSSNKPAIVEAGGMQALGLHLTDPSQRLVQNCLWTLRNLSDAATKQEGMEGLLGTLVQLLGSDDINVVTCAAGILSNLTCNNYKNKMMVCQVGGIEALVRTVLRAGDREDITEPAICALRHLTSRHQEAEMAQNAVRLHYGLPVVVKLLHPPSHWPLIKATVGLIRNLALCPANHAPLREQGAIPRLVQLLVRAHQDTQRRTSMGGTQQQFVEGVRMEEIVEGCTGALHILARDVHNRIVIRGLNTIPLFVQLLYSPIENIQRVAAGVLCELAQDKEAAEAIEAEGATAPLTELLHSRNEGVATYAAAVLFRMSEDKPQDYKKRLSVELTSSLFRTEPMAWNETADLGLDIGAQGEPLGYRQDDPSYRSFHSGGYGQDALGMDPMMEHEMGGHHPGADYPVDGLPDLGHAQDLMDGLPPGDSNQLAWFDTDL
T1 sequence (O00512 whole entry): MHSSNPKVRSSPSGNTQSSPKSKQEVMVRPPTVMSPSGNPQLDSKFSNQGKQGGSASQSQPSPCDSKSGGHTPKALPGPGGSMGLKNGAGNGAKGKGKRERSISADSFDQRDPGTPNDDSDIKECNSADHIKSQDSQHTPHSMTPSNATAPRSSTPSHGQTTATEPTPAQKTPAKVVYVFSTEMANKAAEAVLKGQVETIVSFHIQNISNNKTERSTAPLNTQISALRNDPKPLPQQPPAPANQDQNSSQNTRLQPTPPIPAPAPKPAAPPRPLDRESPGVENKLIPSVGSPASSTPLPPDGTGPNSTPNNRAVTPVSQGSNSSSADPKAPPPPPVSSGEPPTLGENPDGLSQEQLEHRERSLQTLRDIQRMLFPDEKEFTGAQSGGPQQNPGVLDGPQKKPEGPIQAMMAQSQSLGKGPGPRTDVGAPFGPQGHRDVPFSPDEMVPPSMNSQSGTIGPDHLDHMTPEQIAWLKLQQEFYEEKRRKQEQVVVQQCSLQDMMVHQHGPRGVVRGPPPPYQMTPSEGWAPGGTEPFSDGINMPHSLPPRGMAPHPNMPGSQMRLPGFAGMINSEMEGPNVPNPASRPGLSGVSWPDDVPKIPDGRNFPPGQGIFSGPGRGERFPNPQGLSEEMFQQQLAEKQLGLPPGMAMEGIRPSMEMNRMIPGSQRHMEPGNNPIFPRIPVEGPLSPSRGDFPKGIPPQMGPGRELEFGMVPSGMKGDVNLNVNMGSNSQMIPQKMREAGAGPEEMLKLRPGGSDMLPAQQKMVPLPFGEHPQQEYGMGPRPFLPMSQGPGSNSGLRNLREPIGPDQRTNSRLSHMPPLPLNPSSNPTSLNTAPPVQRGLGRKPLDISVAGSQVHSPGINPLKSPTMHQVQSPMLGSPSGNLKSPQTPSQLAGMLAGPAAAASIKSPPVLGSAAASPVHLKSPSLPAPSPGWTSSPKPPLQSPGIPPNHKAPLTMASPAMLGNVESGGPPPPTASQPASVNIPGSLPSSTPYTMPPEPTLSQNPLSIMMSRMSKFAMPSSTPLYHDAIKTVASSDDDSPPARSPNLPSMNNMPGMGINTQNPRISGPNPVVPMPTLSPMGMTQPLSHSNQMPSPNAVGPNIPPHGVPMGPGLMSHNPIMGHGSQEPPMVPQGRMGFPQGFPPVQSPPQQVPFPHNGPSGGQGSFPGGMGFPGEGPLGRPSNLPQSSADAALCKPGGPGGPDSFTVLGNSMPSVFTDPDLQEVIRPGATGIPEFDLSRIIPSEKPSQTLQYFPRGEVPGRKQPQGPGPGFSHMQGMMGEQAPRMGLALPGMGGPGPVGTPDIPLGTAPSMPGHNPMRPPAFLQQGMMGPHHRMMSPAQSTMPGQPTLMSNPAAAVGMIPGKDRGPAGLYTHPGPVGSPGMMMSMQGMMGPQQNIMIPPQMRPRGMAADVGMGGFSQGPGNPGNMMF

[2] = Inhibition of full length beta-catenin E155A mutant/N-terminal biotinylated human BCL9 HD2 (350 to 375 residues) protein-protein interaction in human SW480 cells incubated for 1 hr by Alphascreen assay; assay type: cell-based
SW480 = assay: Antiproliferative activity against beta-catenin signalling overexpressing human SW480 cells assessed as reduction in cell growth incubated for 72 hrs by MTS assay; assay type: functional, cell-based; details: SW480, 72 h
HCT-116 = assay: Antiproliferative activity against beta-catenin signalling overexpressing human HCT-116 cells assessed as reduction in cell growth incubated for 72 hrs by MTS assay; assay type: functional, cell-based; details: HCT-116, 72 h
MDA-MB-468 = assay: Antiproliferative activity against beta-catenin signalling overexpressing human MDA-MB-468 cells assessed as reduction in cell growth incubated for 72 hrs by MTS assay; assay type: functional, cell-based; details: MDA-MB-468, 72 h
[3] = Cytotoxicity against human MCF-10A cells assessed as reduction in cell growth incubated for 72 hrs by MTS assay; assay type: toxicity, cell-based

CC(C)(C)C1CCC(c2cc(C(=O)N3CCC(Oc4cc(N5CCNCC5)ccc4C#N)CC3)ccc2O[C@H]2CCNC2)CC1.Cl.Cl (mixture of isomers; cis)
IC50 [1]: 1.2 µM | Ki [2]: 3.6 µM | IC50 (SW480): 6.2 µM | IC50 (HCT-116): 9.7 µM | IC50 (MDA-MB-468): 3.9 µM | IC50 at 72 h [3]: 18 µM
